These compounds were tested on HIV-1 fusion (assay: cells). Settings: HIV cell fusion assay; HeLa P4 (CCR5/CD4) and CHO-Tat10 (gp160 JRFL) cells; read-out: IC50.
Format: cell-based
Protocol: The gp160 induced cell-cell fusion assay uses a HeLa P4 cell line and a CHO-Tat10 cell line.
The HeLa P4 cell line expresses CCR5 and CD4 and has been transfected with HIV-1 LTR-β-Galactosidase. The media for this cell line is Dulbecco modified eagle's medium (D-MEM) (without L-glutamine) containing 10% foetal calf serum (FCS), 2 mM L-glutamine, penicillin/streptomycin (Pen/Strep; 100 U/mL penicillin+[…] streptomycin), and 1 μg/ml puromycin.
The CHO cell line is a Tat (transcriptional trans activator)-expressing clone from a CHO JRR17.1 cell line that has been transfected with pTat puro plasmid. The media for this cell line is rich medium for mammalian cell culture originally developed at Roswell Park Memorial Institute RPMI1640 (without L-glutamine) containing 10% FCS, 2 mM L-glutamine, 0.5 mg/ml Hygromycin B and 12 μg/ml puromycin. The CHO JRR17.1 line expresses gp160 (JRFL) and is a clone that has been selected for its ability to fuse with a CCR5/CD4 expressing cell line.
Upon cell fusion, Tat present in the CHO cell is able to transactivate the HIV-1 long terminal repeat (LTR) present in the HeLa cell leading to the expression of the β-Galactosidase enzyme. This expression is then measured using a Fluor Ace™ β-Galactosidase reporter assay kit (Bio-Rad cat no. 170-3150). This kit is a quantitative fluorescent assay that determines the level of expression of β-galactosidase using 4-methylumbelliferyl-galactopyranoside (MUG) as substrate. β-Galactosidase hydrolyses the fluorogenic substrate resulting in release of the fluorescent molecule 4-methylumbelliferone (4 MU). Fluorescence of 4-methylumbelliferone is then measured on a fluorometer using an excitation wavelength of 360 nm and emission wavelength of 460 nm.
`Cc1ncnc(C)c1C(=O)N1CCC(N2CC[C@@H](N(Cc3ccccc3)C(=O)OC(C)C)C2)CC1` [Example 36] was tested, and the IC50 was 52 nM. `CC(=O)N(Cc1ccccc1F)[C@@H]1CCN(C2CCN(C(=O)c3c(C)cccc3C)CC2)C1` [Example 14] showed an IC50 of 13 nM. Compound `Cc1ccccc1C(=O)N1CCC(N2CC[C@@H](N(Cc3ccccc3)C(=O)C3CC3)C2)CC1` [Example 17] has an IC50 of 40.8 nM. `Cc1ncnc(C)c1C(=O)N1CCC(N2CC[C@@H](N(Cc3ccccc3)C(=O)C3CC3)C2)CC1` [Example 35] showed an IC50 of 9.9 nM. `Cc1cccc(C)c1C(=O)N1CCC(N2CC[C@@H](N(Cc3ccc(F)cc3)C(=O)C3CC3)C2)CC1` [Example 15] gave an IC50 of 34.1 nM. Compound `O=C(c1c(F)cccc1Cl)N1CCC(N2CC[C@@H](N(Cc3ccccc3)C(=O)CC3CC3)C2)CC1` [Example 51] has an IC50 of 100 nM. `Cc1cccc(C)c1C(=O)N1CCC(N2CC[C@@H](N(Cc3ccccc3)C(=O)C(C)C)C2)CC1` [Example 8] showed an IC50 of 0.63 nM. For `COCC(=O)N(Cc1cccc(F)c1)[C@@H]1CCN(C2CCN(C(=O)c3c(C)ccnc3C)CC2)C1` [Example 25], the IC50 was 5.04 nM. `Cc1cccc(C)c1C(=O)N1CCC(N2CC[C@@H](N(Cc3ccccc3)C(=O)C3CCC3)C2)CC1` [Example 5] was tested, and the IC50 was 0.27 nM. Work on `CCOC(=O)N(Cc1ccccc1)[C@@H]1CCN(C2CCN(C(=O)c3c(C)ncnc3C)CC2)C1` [Example 38] yielded an IC50 of 135 nM. In the case of `COCC(=O)N(Cc1ccccc1F)[C@@H]1CCN(C2CCN(C(=O)c3c(F)cccc3Cl)CC2)C1` [Example 50], the IC50 is reported as 77.7 nM. For `Cc1ccccc1C(=O)N1C2CCC1CC(N1CCC(N(Cc3ccccc3)C(=O)C3CC3)C1)C2` (centres unmarked) [Example 72], the IC50 was 97.3 nM. `Cc1cccc(C)c1C(=O)N1CCC(N2CC[C@@H](N(Cc3ccccn3)C(=O)C3CC3)C2)CC1` [Example 16] gave an IC50 of 237 nM. Work on `Cc1cccc(C(=O)N2CCC(N3CC[C@@H](N(Cc4ccccc4)C(=O)CC4CC4)C3)CC2)c1Cl` [Example 46] yielded an IC50 of 107 nM. In the case of `COCC(=O)N(Cc1ccccc1)[C@@H]1CCN(C2CCN(C(=O)c3ccccc3C(F)(F)F)CC2)C1` [Example 55], the IC50 is reported as 48.1 nM. `COCC(=O)N(Cc1ccccc1F)[C@@H]1CCN(C2CCN(C(=O)c3c(Cl)cccc3Cl)CC2)C1` [Example 44] was tested, and the IC50 was 1.84 nM. `Cc1cc[n+]([O-])c(C)c1C(=O)N1CCC(C)(N2CC[C@@H](N(Cc3ccccc3)C(=O)C3CC3)C2)CC1` [Example 65] gave an IC50 of 26.5 nM. With `Cc1ncnc(C)c1C(=O)N1C2CCC1CC(N1CCC(N(Cc3ccccc3)C(=O)C3CC3)C1)C2` (centres unmarked) [Example 71] the IC50 was 4.27 nM. For `COc1cc(Cl)ccc1C(=O)N1CCC(N2CC[C@@H](N(Cc3ccccc3)C(=O)C3CC3)C2)CC1` [Example 53], the IC50 was 104 nM. In the case of `COCC(=O)N(Cc1ccccc1)[C@@H]1CCN(C2CCN(C(=O)c3c(C)cccc3C)CC2)C1` [Example 4], the IC50 is reported as 0.23 nM. In the case of `O=C(c1c(F)cccc1Cl)N1CCC(N2CC[C@@H](N(Cc3ccccc3)C(=O)C3CC3)C2)CC1` [Example 49], the IC50 is reported as 28.5 nM. For `Cc1cccc(C)c1C(=O)N1CCC(N2CC[C@@H](N(Cc3ccccc3F)C(=O)C3CC3)C2)CC1` [Example 3], the IC50 was 0.2 nM. `Cc1ncnc(C)c1C(=O)N1CCC(N2CC[C@@H](N(Cc3ccccc3F)C(=O)C3CC(F)(F)C3)C2)CC1` [Example 37] showed an IC50 of 62.6 nM. Compound `CC(=O)N(Cc1ccccc1)[C@@H]1CCN(C2CCN(C(=O)c3c(C)cccc3C)CC2)C1` [Example 11] has an IC50 of 3.05 nM. `COCC(=O)N(Cc1ccccc1F)[C@@H]1CCN(C2CCN(C(=O)c3c(C)ccnc3C)CC2)C1` [Example 24] was tested, and the IC50 was 119 nM. Work on `Cc1ccnc(C)c1C(=O)N1CCC(N2CC[C@@H](N(Cc3ccccc3F)C(=O)C3CC(F)(F)C3)C2)CC1` [Example 28] yielded an IC50 of 12.4 nM. `Cc1ccnc(C)c1C(=O)N1CCC(N2CC[C@@H](N(Cc3ccccc3)C(=O)C3CC3)C2)CC1` [Example 21] gave an IC50 of 0.82 nM. With `Cc1onc(-c2ccccc2)c1C(=O)N1CCC(N2CC[C@@H](N(Cc3ccccc3)C(=O)C3CC3)C2)CC1` [Example 41] the IC50 was 0.41 nM. `COCC(=O)N(Cc1ccccc1F)[C@@H]1CCN(C2(C)CCN(C(=O)c3ccc(F)cc3Cl)CC2)C1` [Example 66] was tested, and the IC50 was 28.5 nM. With `Cc1ccnc(C)c1C(=O)N1CCC(N2CC[C@@H](N(Cc3cccc(F)c3)C(=O)C3CC(F)(F)C3)C2)CC1` [Example 32] the IC50 was 34.7 nM. Compound `Cc1cccc(C)c1C(=O)N1CCC(N2CC[C@@H](N(Cc3ccccc3)C(=O)c3ccccc3)C2)CC1` [Example 12] has an IC50 of 4.06 nM. `Cc1ncnc(C)c1C(=O)N1CCC(C)(N2CC[C@@H](N(Cc3ccccc3)C(=O)C3CC(F)(F)C3)C2)CC1` [Example 67] was tested, and the IC50 was 44.3 nM. `Cc1ccnc(C)c1C(=O)N1CCC(N2CC[C@@H](N(Cc3cccc(F)c3)C(=O)C(C)C)C2)CC1` [Example 33] showed an IC50 of 42.2 nM. `COCC(=O)N(Cc1cccc(F)c1F)[C@@H]1CCN(C2CCN(C(=O)c3c(C)ccnc3C)CC2)C1` [Example 26] showed an IC50 of 6.51 nM. `Cc1ccnc(C)c1C(=O)N1CCC(N2CC[C@@H](N(Cc3ccccc3)C(=O)C3CC(F)(F)C3)C2)CC1` [Example 22] was tested, and the IC50 was 1.21 nM. In the case of `Cc1cc[n+]([O-])c(C)c1C(=O)N1CCC(N2CC[C@@H](N(Cc3ccccc3)C(=O)C3CC3)C2)CC1` [Example 54], the IC50 is reported as 34.3 nM. With `Cc1ncnc(C)c1C(=O)N1CCC(N2CC[C@@H](N(Cc3ccccc3)C(=O)C3CC(F)(F)C3)C2)CC1` [Example 34] the IC50 was 8.51 nM. `Cc1cccc(C)c1C(=O)N1CCC(N2CC[C@@H](N(Cc3cccc(F)c3)C(=O)C3CC3)C2)CC1` [Example 9] was tested, and the IC50 was 0.8 nM. `Cc1ccc(C(=O)N2CCC(N3CC[C@@H](N(Cc4ccccc4)C(=O)C4CC4)C3)CC2)c(C)c1` [Example 20] showed an IC50 of 221 nM. Work on `Cc1ncnc(C)c1C(=O)N1CCC(C)(N2CC[C@@H](N(Cc3ccccc3)C(=O)C3CC3)C2)CC1` [Example 63] yielded an IC50 of 8.18 nM. With `Cc1ccnc(C)c1C(=O)N1CCC(C)(N2CC[C@@H](N(Cc3ccccc3)C(=O)C3CC3)C2)CC1` [Example 62] the IC50 was 0.34 nM. `CC(=O)N(Cc1ccccc1)[C@@H]1CCN(C2CCN(C(=O)c3c(C)ccnc3C)CC2)C1` [Example 29] was tested, and the IC50 was 14 nM. `Cc1ccnc(C)c1C(=O)N1CCC(N2CC[C@@H](N(Cc3ccccc3F)C(=O)C(C)C)C2)CC1` [Example 27] gave an IC50 of 8.8 nM. `COCC(=O)N(Cc1ccccc1F)[C@@H]1CCN(C2(C)CCN(C(=O)c3c(C)ncnc3C)CC2)C1` [Example 64] gave an IC50 of 16.6 nM. For `CCc1cnn(C)c1C(=O)N1CCC(N2CC[C@@H](N(Cc3ccccc3)C(=O)C3CC3)C2)CC1` [Example 43], the IC50 was 59.8 nM. `Cc1cccc(C)c1C(=O)N1CCC(C)(N2CC[C@@H](N(C=O)Cc3ccccc3F)C2)CC1` [Example 69] was tested, and the IC50 was 123 nM. `Cc1cccc(C)c1C(=O)N1CCC(N2CC[C@@H](N(Cc3ccccc3)C(=O)C3CC3)C2)CC1` [Example 10] showed an IC50 of 1.99 nM. `CCc1noc(C)c1C(=O)N1CCC(C)(N2CC[C@@H](N(Cc3ccccc3)C(=O)C3CC3)C2)CC1` [Example 68] gave an IC50 of 61.6 nM.

Same assay, conditions: HIV cell fusion assay; unit μm printed under the cell; read-out: IC50
`COc1ccc(C(=O)N2CCC(N3CC[C@@H](N(Cc4ccccc4)C(=O)CC4CC4)C3)CC2)cc1C` [Example 57] gave an IC50 of 6200 nM. Work on `O=C(c1ccccc1)N1CCC(N2CC[C@@H](N(Cc3ccccc3)C(=O)C3CC3)C2)CC1` [Example 56] yielded an IC50 of 1900 nM.

Same assay, conditions: Human immunodeficiency virus 1, HeLaP4
`Cc1ccnc(C)c1C(=O)N1CCC(N2CC[C@@H](N(Cc3ccccc3)C(=O)C3CC3)C2)[C@H](C)C1` (stereo partly drawn) [Example 60, N-benzyl-N-((3R)-1-{1-[(2,4-dimethylpyridin-3-yl)carbonyl]-3-methylpiperidin-4-yl}pyrrolidin-3-yl)cyclopropanecarboxamide] showed an IC50 of 4.46 nM. For `Cc1ccnc(C)c1C(=O)N1[C@@H]2CC[C@H]1C[C@H](N1CC[C@@H](N(Cc3ccccc3)C(=O)C3CC3)C1)C2` [Example 70, N-benzyl-N-((3R)-1-[(3-exo)-8-[(2,4-dimethylpyridin-3-yl)carbonyl]-8-azabicyclo[3.2.1]oct-3-yl]pyrrolidin-3-yl)cyclopropanecarboxamide], the IC50 was 2.65 nM. In the case of `Cc1cccc(C)c1C(=O)N1CCC(C)(N2CC[C@@H](N(Cc3ccccc3)C(=O)C3CC3)C2)CC1` [Example 61, N-benzyl-N-{(3R)-1-[1-(2,6-dimethylbenzoyl)-4-methylpiperidin-4-yl]pyrrolidin-3-yl}cyclopropanecarboxamide], the IC50 is reported as 0.23 nM. For `Cc1cccc(C)c1C(=O)N1CCC(N2CC[C@@H](N(Cc3ccccc3)S(C)(=O)=O)C2)CC1` [Example 58, N-benzyl-N-{(3R)-1-[1-(2,6-dimethylbenzoyl)piperidin-4-yl]pyrrolidin-3-yl}methanesulfonamide], the IC50 was 92.5 nM. `CCCNC(=O)N(Cc1ccccc1F)[C@@H]1CCN(C2CCN(C(=O)c3c(C)cccc3C)CC2)C1` [Example 59, N-[(3R)-1-[1-(2,6-dimethylbenzoyl)piperidin-4-yl]pyrrolidin-3-yl]-N-(2-fluorobenzyl)-N′-propylurea] was tested, and the IC50 was 0.02 nM. `Cc1cccc(C)c1C(=O)N1CCC(N2CC[C@@H](N(Cc3cccc(Cl)c3)C(=O)C3CC3)C2)CC1` [Example 1, N-(3-chlorobenzyl)-N-{(3R)-1-[1-(2,6-dimethylbenzoyl)piperidin-4-yl]pyrrolidin-3-yl}cyclopropanecarboxamide] showed an IC50 of 0.14 nM.

— patent US20090124636A1, “CHEMICAL COMPOUNDS” (priority 2006, published 2009)
